Source: publication PMC4840416, “Constructing and Validating High-Performance MIEC-SVM Models in Virtual Screening for Kinases: A Better Way for Actives Discovery” (Scientific Reports, 2016)

Molecular target: T1, recombinant human ALK protein (Homo sapiens, UniProt Q9UM73)
T1 construct: purchased Life Technologies Inc. PV3867
Experiment: LanthaScreen TR-FRET in vitro inhibitory activity assay of ALK
Type: biochemical
Settings: for Averaged Enzymatic Inhibition @ 2ug/ml (%) / inhibition at 2 µg/mL: compound at 2ug/ml; for IC50: TR-FRET, 5 μM ATP, 1 hour at room temperature; for inhibition at 2 µg/mL: read-out: Averaged Enzymatic Inhibition @ 2ug/ml (%)
Experimental: All reagents and anhydrous solvents were obtained from commercial sources and used as received. The positive control inhibitors of ALK, crizotinib and ceritinib, were purchased from Bangshunda Technology and Selleck Chemicals, respectively. The compounds were dissolved in 100% dimethyl sulfoxide (DMSO) as a 10 mM stock solution. The final DMSO concentration in each reaction was less than 1%. Purified recombinant human ALK protein (Catalog number: PV3867) as well as reagents for TR-FRET assay, including Lantha Screen™ Tb-PY20 (Catalog number: PV3552), Fluorescein-Poly GT (Catalog number: PV3610), ATP (Catalog number: PV3227), Kinase Quench Buffer (Catalog number: P2832), Kinase Buffer (Catalog number: PV3189), and Antibody Dilution Buffer (Catalog number: PV3574), were all obtained from Life Technologies Inc.
Lantha Screen™ kinase assay based on TR-FRET technology was used to measure the inhibitory activity of the screened compounds. All the assays were carried out in 384-well plate format. The 4 × test compounds were firstly prepared before the enzyme reaction starts. The 4 × recombinant human ALK protein and 2 × Substrate/ATP mixture were separately prepared in 50 mM HEPES (pH = 7.5), 0.01% BRIJ-35, 10 mM MgCl2, 4 mM MnCl2, 1 mM EGTA, and 2 mM DTT. The final 10 μL kinase reaction consists of 5 μL 1 × Substrate/ATP mixture (0.2 μM substrate and 5 μM ATP), 2.5 μL ALK (5 ng/ml ALK protein), and 2.5 μL 1 × test compounds with desired concentration. The assay plate was shook on a plate shaker for 30 seconds to mix the reactions thoroughly. After 1 hour kinase reaction incubation at room temperature (20 ~ 25 °C), 10 μL of pre-prepared 20 mM EDTA and 4 nM Tb-labeled antibody solution was then added to terminate the kinase reactions and to initiate antibody binding, and the assay plate was incubated for another 1 hour at room temperature. Then, the assay plate was placed into a fluorescence plate reader (BioTek Synergy™ 4) to measure both fluoresce in and terbium emission signals (excitation: 340 nm; emission: 520 and 495 nm, respectively) with 100 μs delay time and 200 μs integration time. To determine the IC50 values, the resulted inhibitory activity calculated from TR-FRET emission ratio (i.e. fluoresce in emission intensity/terbium emission intensity) was plotted against the concentration of inhibitor, and the data was fitted to a dose-response curve with a variable slop.

T1 sequence (Q9UM73 1058-1620 limits assumed): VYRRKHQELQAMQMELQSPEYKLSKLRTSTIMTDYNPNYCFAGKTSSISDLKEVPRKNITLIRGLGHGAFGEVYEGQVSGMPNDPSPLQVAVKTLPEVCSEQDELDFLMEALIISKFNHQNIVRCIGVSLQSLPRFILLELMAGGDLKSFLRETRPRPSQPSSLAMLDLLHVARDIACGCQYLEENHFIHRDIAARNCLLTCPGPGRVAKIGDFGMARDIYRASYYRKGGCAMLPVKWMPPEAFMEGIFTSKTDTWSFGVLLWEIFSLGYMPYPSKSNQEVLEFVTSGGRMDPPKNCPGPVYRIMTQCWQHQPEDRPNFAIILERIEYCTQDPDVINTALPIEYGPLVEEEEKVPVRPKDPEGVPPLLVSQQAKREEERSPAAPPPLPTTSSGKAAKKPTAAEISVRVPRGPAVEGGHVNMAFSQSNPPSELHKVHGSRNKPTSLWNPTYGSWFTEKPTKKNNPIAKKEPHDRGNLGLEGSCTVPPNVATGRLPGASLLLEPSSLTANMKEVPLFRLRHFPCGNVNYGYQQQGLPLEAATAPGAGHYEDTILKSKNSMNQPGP

SMILES | Averaged Enzymatic Inhibition @ 2ug/ml (%) | IC50 [nM] | inhibition at 2 µg/mL [%]
O=C(Nc1ccccc1)c1c(-c2ccccc2)c(C(=O)c2ccc([N+](=O)[O-])cc2)n2ccccc12 [AI-204/31728031] | 3.565 |  | 
Cc1nc(Nc2nc(CSc3nnnn3-c3ccccc3)cc(=O)[nH]2)nc2ccccc12 [AJ-292/42284747] | 1.31 |  | 
Cc1ccc(C(=O)CC2(O)C(=O)N(CCc3ccccc3)c3ccccc32)cc1 (stereo not drawn) [AK-778/40897568] | 18.54 |  | 
O=C(CC1(O)C(=O)N(CCc2ccccc2)c2ccccc21)c1ccc2c(c1)OCCO2 (stereo not drawn) [AK-778/41314821] | -1.935 |  | 
C(=C(\Cn1nc(-c2ccccc2)c(-c2ccccc2)c1-c1ccccc1)c1ccccc1)/c1ccccc1 [AK-830/13217169] | 2.08 |  | 
Cc1ccc(C(=O)COC(=O)c2ccc3nc4c5ccccc5c5ccccc5c4nc3c2)cc1C [AK-918/13399094] | 8.005 |  | 
O=C(COC(=O)c1c(-c2ccccc2)c(-c2ccccc2)nc2ccccc12)c1ccccc1 [AK-918/15391011] | -13.24 |  | 
C(=N\Nc1nnc(-c2ccccc2)c(-c2ccccc2)n1)/c1c2ccccc2cc2ccccc12 [AK-968/11200121] | -0.805 |  | 
Cc1cccc(N=c2sc(C3=c4cc(C)ccc4=NC3=O)c(O)n2-c2cccc(C)c2)c1 [AK-968/11780042] | -8.175 |  | 
Cc1ccc(-c2cc(C(=O)N3CCN(C/C=C/c4ccccc4)CC3)c3ccccc3n2)cc1C [AK-968/11842315] | 10.91 |  | 
COc1ccccc1C(=O)Nc1ccc2oc(-c3cccc4c(Br)cccc34)nc2c1 [AK-968/12097078] | -2.025 |  | 
CCC1CCc2c(sc(NC(=O)c3c(-c4c(Cl)cccc4Cl)noc3C)c2C(N)=O)C1 (stereo not drawn) [AK-968/12265292] | -4.47 |  | 
Cc1onc(-c2ccccc2)c1C(=O)Nc1cccc2c1C(=O)c1ccccc1C2=O [AK-968/13025057] | 30.35 |  | 
CCCOc1ccc(-c2cc(C(=O)N3CCC(Cc4ccccc4)CC3)c3ccccc3n2)cc1 [AK-968/15360205] | -17.96 |  | 
O=C1OC(c2ccccc2Cl)=N/C1=C\c1ccc(OCc2ccccc2)cc1OCc1ccccc1 [AK-968/37055166] | -8.735 |  | 
CCC(Oc1ccc2ccccc2c1Br)C(=O)NNC(=O)c1cc2cc(Br)ccc2oc1=O (stereo not drawn) [AK-968/37077046] | 3.24 |  | 
Cc1ccc(-c2csc(N3N=C(c4ccc5c(c4)CCCC5)CC3c3ccccc3)n2)cc1 (stereo not drawn) [AL-182/40744490] | -4.165 |  | 
Nc1nc(Nc2cccc(Cl)c2)sc1C(=O)C12CC3CC(CC(C3)C1)C2 [AM-807/12426163] | 5.915 |  | 
CN1CCc2nc3sc(C(=O)c4ccc(-c5ccccc5)cc4)c(N)c3c(-c3cccs3)c2C1 [AM-807/14959628] | -12.705 |  | 
CCOc1cc(/C=C2/SC(=O)N(Cc3c(F)cccc3Cl)C2=O)ccc1O [AM-879/41780072] | 12.385 |  | 
Cc1cc(C)c2oc(-c3ccc(C)c(NC(=O)C(c4ccccc4)c4ccccc4)c3)nc2c1 [AN-465/13859038] | 40.815 |  | 
CCn1cc(/C=C2\C(=O)NC(=S)N(c3cccc4ccccc34)C2=O)c2ccccc21 [AN-465/14954307] | 46.45 |  | 
Cc1cc(C)c2oc(-c3cccc(NC(=O)COc4cc(Cl)c(Cl)cc4Cl)c3C)nc2c1 [AN-465/40934866] | 2.22 |  | 
N#Cc1c(N)nc2sc(C(=O)Nc3ccccc3)c(N)c2c1-c1cccs1 [AN-512/12594125] | 10.48 |  | 
C/C(=N\Nc1nc(-c2ccc(F)cc2)cs1)c1nonc1C [AN-648/40740338] | 23.375 |  | 

SMILES | Averaged Enzymatic Inhibition @ 2ug/ml (%) | IC50 [nM] | inhibition at 2 µg/mL [%]
Cc1ccnc(NC(=O)c2ccc(Cl)c(NC(=O)c3ccc(-c4ccccc4)cc3)c2)c1 [AN-652/43161615] | 17.89 |  | 
c1ccc(CSc2nnc3c(n2)OC(c2c4ccccc4cc4ccccc24)Nc2ccccc2-3)cc1 (stereo not drawn) [AN-655/13300050] | 23.865 |  | 
CCc1ccc2[nH]c3nc(N/N=C/c4ccc(-c5cccc(C(F)(F)F)c5)o4)nnc3c2c1 [AN-655/15262058] | 11.82 |  | 
Cc1ccc(-n2cnc3c(sc4nnc(-c5ccccc5)c(-c5ccccc5)c43)c2=O)cc1 [AN-789/13819006] | 1.595 |  | 
O=C(COc1ccccc1-c1cnn(-c2ccccc2)c1)N/N=C/c1cc2ccccc2nc1Cl [AN-829/42007480] | 2.755 |  | 
N#Cc1c(N)nc2sc(C(=O)Nc3ccc(Cl)cc3)c(N)c2c1-c1cccs1 [AN-848/43256373] | -5 |  | 
O=C1c2ccc(-c3nc4ccccc4s3)cc2C(=O)N1c1cccc(-c2nc3ccccc3s2)c1 [AN-979/41713847] | 5.385 |  | 
O=C(Nc1cccc(S(=O)(=O)N2CCN(C(=O)c3ccccc3)CC2)c1)C1CCCCC1 [AO-080/43378230] | -9.72 |  | 
O=C(Cn1cc(/C=C2\SC(=NC3CCCC3)N(C3CCCC3)C2=O)c2ccccc21)N1CCOCC1 [AO-081/15386972] | -1.4 |  | 
O=C(Nc1ccc(Cl)cc1)C1CC(=O)N(c2ccc(Oc3ccccc3)cc2)C1 (stereo not drawn) [AO-081/15572353] | -3.26 |  | 
COc1cccc(-c2cc3c(c(N)c2C#N)c(=O)oc2ccccc23)c1 [AO-476/43362608] | 9.055 |  | 
O=C(c1cccc(S(=O)(=O)NC2CCCCCC2)c1)c1cccc(S(=O)(=O)NC2CCCCCC2)c1 [AP-866/40876225] | 9.84 |  | 
N#CC1=C(N)Oc2n[nH]c(-c3ccccc3)c2C1c1cccc(OCc2cccc3ccccc23)c1 (stereo not drawn) [AP-964/41446891] | 13.75 |  | 
c1ccc(-c2cc(-c3c(-c4ccccc4)cn4c3sc3ccccc34)c(-c3ccccc3)nn2)cc1 [AQ-344/43100304] | -14.115 |  | 
COc1ccc(Cl)cc1C(=O)NCCNc1ccc(-n2nc(C)cc2C)nn1 [AQ-432/43400100] | -6.36 |  | 
CC(NS(=O)(=O)c1cccc(Cl)c1)C(=O)Nc1cccc(-c2nc3ccccc3s2)c1 (stereo not drawn) [AQ-750/42209760] | 13.425 |  | 
O=c1oc2ccccc2cc1-c1nnc(NC2CCCCC2)s1 [AQ-968/42007731] | -5.865 |  | 
Cc1cccn2c(=O)c3cc(C(=O)NC(C)c4ccccc4)c(=N)n(CCc4ccccc4)c3nc12 (stereo not drawn) [AS-871/41399397] | -8.995 |  | 
OC(CON=C1c2ccccc2-c2ccccc21)CN1CCN(c2ccc(Cl)cc2)CC1 (stereo not drawn) [AS-871/42941985] | -10.47 |  | 
O=C(c1cc(C(=O)N2CCN(c3ccccc3)CC2)cc(C(=O)N2CCN(c3ccccc3)CC2)c1)N1CCN(c2ccccc2)CC1 [Compound A1] |  | 572 | 80.6
O=C(CN1C(=O)C(=NNC(=O)c2ccc(NC(=O)c3ccccc3)cc2)c2ccccc21)Nc1ccccc1 [Compound A2] |  | 832 | 50.4
Cc1ccc(C)c(N2CCN(C3CC(=O)N(c4ccc(N5C(=O)CC(N6CCN(c7cc(C)ccc7C)CC6)C5=O)cc4)C3=O)CC2)c1 (stereo not drawn) [Compound A3] |  | 1540 | 65.8
Cc1ccc(N2C(=O)C(=Cc3ccc(C)s3)C(=O)N(c3ccc(C)cc3C)C2=S)c(C)c1 [Compound M3] |  | 515 | 91.5
COc1cc(/C=C2/C(=N)N3N=C(c4ccccc4Cl)SC3=NC2=O)ccc1O [Compound M4] |  | 863 | 70.5
